Reference: ChEMBL document CHEMBL1201862, “PubChem BioAssay data set” (2004)
The source made the active and inactive calls.

tested on: not listed separately; experiment: Trypanosoma cruzi growth suppression in host cells – NIH3T3 host cells, beta-gal luminescence, confirmation (AID 2044); type: functional, cell-based; conditions: not given;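 also: intracellular parasites grown in NIH/3T3 mouse fibroblasts as host cells; luminescent beta-galactosidase reporter signal from transgenic T. cruzi replicating inside host cells; inhibitors lower the luminescence signal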

SMILES	EC50
Cc1nn2c(SCC(=O)c3cccs3)cc(C(C)(C)C)nc2c1-c1ccccc1	2.66 µM (active)
COc1ccc(OCCOCCN2CCc3ccccc3C2)cc1	0.141 µM (active)
COc1ccc(C2=NN(C(=O)c3cccs3)C(c3ccccc3O)C2)cc1 (centres undefined)	3.01 µM (active)
Cc1cc(C)c(OCCCCN(C)C)c(Br)c1	0.46 µM (active)
Cc1cnc(C(=O)Nc2cccc3cccnc23)cn1	2.22 µM (active)
c1ccc(Cn2nnnc2C(c2cccnc2)N2CCN(c3ccccc3)CC2)cc1 (centres undefined)	0.534 µM (active)
O=[N+]([O-])c1cc(-c2nnc(Nc3ccccc3)c3ccccc23)ccc1N1CCOCC1	1.28 µM (active)
CCOC(=O)c1cn2nc(-c3ccc(OC)cc3)cc2nc1C1CCN(C(=O)OC(C)(C)C)CC1	1.55 µM (active)
Cc1ccc(C)c(NS(=O)(=O)c2cc(C(=O)N3CCc4ccccc4C3)ccc2Cl)c1	2.06 µM (active)
c1ccc(COc2ccc(OCCN3CCCC3)cc2)cc1	1.18 µM (active)
N#C/C(=C\c1c(Cl)cccc1Cl)c1nn(-c2ccccc2)c(-n2cccc2)c1C#N	1.29 µM (active)
CC(C)CCNc1nc(N2CCCC2)c2c(c1C#N)CCN(C)C2	0.1 µM (active)
Cc1ccccc1C1c2[nH]c3ccccc3c2CCN1Cc1cccn1-c1ncccn1 (centres undefined)	1.26 µM (active)
O=S(=O)(N1CCCCC1)N1CCN(CC(O)COc2ccc3cc(Br)ccc3c2)CC1 (centres undefined)	2.31 µM (active)

tested on: not listed separately; experiment: viability of uninfected HEp-2 cells – cell-based, HTS, cytotoxicity control for RSV inhibitor project, dose response (AID 2410); type: functional; conditions: human respiratory syncytial virus

SMILES	CC50
CCOc1ccc(-c2cn(S(=O)(=O)c3cccc4nsnc34)nc2N)cc1	> 50 µM (active)
Cc1cc(/C=C2\C(=N)N3N=C(C(C)C)SC3=NC2=O)c(C)n1Cc1ccccc1	21.5 µM (active)
CCCNC(=O)c1c(N)n(Cc2ccco2)c2nc3ccccc3nc12	29.8 µM (active)
Cc1nc2c(ccc3nc(NC(=O)C(c4ccccc4)c4ccccc4)sc32)s1	5.99 µM (active)
Cc1cc(C(=O)CSc2ccc(F)cc2)cc(C)c1O	22 µM (active)
CCOc1ccccc1/N=N/c1c(C)[nH]n(C(N)=S)c1=O	33.1 µM (active)
Cc1ccc(-c2nc(Nc3ccc(N4CCOCC4)cc3)c3ccccc3n2)cc1	18.6 µM (active)
CC1CCCN(S(=O)(=O)c2ccc(NC(=O)c3cccc(-n4cnnn4)c3)cc2)C1 (centres undefined)	16.4 µM (active)
O=C(COc1ccccc1)Nc1ccc(N2CCN(C(=O)c3ccco3)CC2)cc1	23.6 µM (active)
COc1cccc(-c2nn(-c3ccccc3)cc2/C=C\C(=O)c2cccs2)c1	24.3 µM (active)

tested on: Streptococcus sp. 'group A'; experiment: Streptococcus pyogenes SK(-)GAS viability under kanamycin – luminescence, BacTiterGlo, confirmation, counter-screen for streptokinase expression inhibitor project, dose response (AID 1900); type: functional, organism-based; conditions: not given

SMILES	EC50
COCCSc1ccccc1C(=O)N1CCCC(C)C1 (centres undefined)	> 150 µM (not active)

molecular target: T1, Heat shock factor protein 1 (Mus musculus, UniProt P38532); experiment: decrease of HSF1-responsive luciferase luminescence – cell-based, NIH3T3, dose retest, confirmation (AID 2382); type: functional; conditions: not given;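 also: NIH3T3 fibroblasts with HSF1-driven luciferase reporter stressed by proteasome inhibitor MG132; luminescence from HSF1-driven luciferase expression after 8 hours of MG132 stress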
T1 sequence (P38532 whole entry): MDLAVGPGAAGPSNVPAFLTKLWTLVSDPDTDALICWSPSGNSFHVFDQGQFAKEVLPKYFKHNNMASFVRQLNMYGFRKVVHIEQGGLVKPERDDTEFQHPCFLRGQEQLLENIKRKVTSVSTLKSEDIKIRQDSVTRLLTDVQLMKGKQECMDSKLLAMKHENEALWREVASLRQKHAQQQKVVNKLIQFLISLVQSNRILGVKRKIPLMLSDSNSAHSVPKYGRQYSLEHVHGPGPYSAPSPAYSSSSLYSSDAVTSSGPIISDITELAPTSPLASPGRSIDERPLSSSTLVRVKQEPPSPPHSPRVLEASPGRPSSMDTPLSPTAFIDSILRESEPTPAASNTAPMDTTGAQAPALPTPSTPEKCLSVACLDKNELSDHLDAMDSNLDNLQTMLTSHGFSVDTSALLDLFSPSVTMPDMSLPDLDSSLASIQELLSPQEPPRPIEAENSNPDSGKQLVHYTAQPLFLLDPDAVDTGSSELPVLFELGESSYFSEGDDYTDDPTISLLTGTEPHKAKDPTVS

SMILES	EC50
COC(=O)c1cc(COc2ccc3oc(C)c(C(=O)OC(C)C)c3c2)c(C)o1	> 195 µM (not active)
CC(C)CC(C(=O)Nc1cccc(O)c1)N1C(=O)c2ccccc2C1=O (centres undefined)	> 195 µM (not active)
O=C1OC2(CCCCC2)OC(O)=C1/C=N/c1nccs1	> 195 µM (not active)
COC(=O)c1ccc(N=NNc2ccc(C(=O)OC)cc2)cc1	> 195 µM (not active)
Cc1cccc(N(C(=O)c2ccco2)C(C(=O)NC2CCCC2)c2cccnc2)c1C (centres undefined)	> 195 µM (not active)
Cc1nc2ccc(NC(=O)N3CCSCC3)cc2s1	> 195 µM (not active)
COc1ccc(CNC(C)CCc2ccccc2)cc1 (centres undefined)	> 195 µM (not active)
O=S(=O)(N1CCCCC1)n1nnc2ccccc21	> 195 µM (not active)
CCOc1ccc(CNC(=O)CCS(=O)(=O)c2ccc3c(c2)oc(=O)n3C)cc1	> 195 µM (not active)
CCn1nc(C)c(/C=N/NC(=O)c2c[nH]c3ccccc23)c1C	> 195 µM (not active)
C/C(=N\OCC(=O)Nn1c(=O)[nH]c2ccccc2c1=O)c1cccs1	> 195 µM (not active)
CSCCC(NS(=O)(=O)c1cccs1)C(=O)NCc1ccccc1 (centres undefined)	> 195 µM (not active)
CCn1cc(C(=O)NCCCN2CC(C)CC(C)C2)c(=O)c2cc(S(=O)(=O)N(C)C)ccc21 (centres undefined)	> 195 µM (not active)
Cc1cc2cc(CCNC(=O)C(=O)c3c[nH]c4ccccc34)c(O)nc2cc1C	21.1 µM (active)
COc1ccc(C(=O)CSc2nc(C)cc(O)n2)cc1C	> 195 µM (not active)
CC(=O)OC1(c2ccccc2)CCN(C)C2CCCCC21 (centres undefined)	> 195 µM (not active)
Cc1ccc(CN2CCN(Cc3cc4ccccc4o3)CC2CCO)cc1 (centres undefined)	> 195 µM (not active)

tested on: Streptococcus; experiment: GAS UMAA2166 growth inhibition – luminescence, BacTiterGlo, counter-screen for streptokinase expression inhibitor project, dose response (AID 1915); type: functional, organism-based; conditions: not given;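 also: potency for reduction of bacterial viability or growth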

SMILES	EC50
COCCSc1ccccc1C(=O)N1CCCC(C)C1 (centres undefined)	> 150 µM (not active)

tested on: INS1; experiment: INS-1E survival protection against cytokine death – cell-based, luminescence, retest, dose response (AID 449756); type: functional; conditions: Rattus norvegicus;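 also: cell death triggered by IL-1 beta plus TNF-alpha plus IFN-gamma mixture; protective hits raise ATP signal compared with cytokine alone wells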

SMILES	AC50
CC#CC[N+](C)(C)CCCCCCCC	28.7 µM (active)
O=C(NCC#CCSc1nnc(-c2cccc3ccccc23)o1)c1cccs1	2.51 µM (active)

molecular target: T2, Rac GTPase-activating protein 1 (Homo sapiens, UniProt Q9H0H5); experiment: blockers of MgcRacGAP-driven Rac1 GTP hydrolysis – biochemical, ADP Hunter fluorescence, primary and confirmatory, confirmation (AID 624330); type: functional; conditions: not given
T2 sequence (Q9H0H5 whole entry): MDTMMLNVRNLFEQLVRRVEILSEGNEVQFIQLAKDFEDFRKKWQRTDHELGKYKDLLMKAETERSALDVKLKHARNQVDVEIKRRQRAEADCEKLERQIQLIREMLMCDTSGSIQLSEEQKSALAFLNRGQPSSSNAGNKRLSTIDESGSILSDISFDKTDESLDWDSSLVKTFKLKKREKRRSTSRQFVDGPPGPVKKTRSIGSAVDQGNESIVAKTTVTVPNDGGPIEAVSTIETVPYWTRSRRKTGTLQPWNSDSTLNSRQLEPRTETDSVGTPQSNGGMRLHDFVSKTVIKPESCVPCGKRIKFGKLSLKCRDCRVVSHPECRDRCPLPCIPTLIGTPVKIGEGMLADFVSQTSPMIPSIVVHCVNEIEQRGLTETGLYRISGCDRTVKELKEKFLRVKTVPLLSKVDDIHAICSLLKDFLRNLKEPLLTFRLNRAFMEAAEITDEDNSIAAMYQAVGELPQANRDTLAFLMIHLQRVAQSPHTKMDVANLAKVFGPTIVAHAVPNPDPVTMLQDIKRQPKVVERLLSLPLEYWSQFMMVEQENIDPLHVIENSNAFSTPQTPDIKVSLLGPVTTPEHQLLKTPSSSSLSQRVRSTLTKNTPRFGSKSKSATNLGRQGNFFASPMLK

SMILES	IC50
CCN(CC)CCNCC(=O)Nc1ccc(Oc2ccccc2)cc1	119 µM (active)
Cc1ccc(CNc2ccc(N3CCOCC3)cc2)s1	20.1 µM (active)
O=[N+]([O-])c1ccc2c(c1)Cc1cc(O)ccc1-2	16.7 µM (active)
CCN(CC)c1ccc(NC(=O)CSC(=O)c2ccccc2)cc1	83.9 µM (active)
COc1cc(CNc2ccc(N3CCOCC3)cc2)cc(Br)c1OC	15.4 µM (active)
CCOC(=O)c1[nH]c2cc(OC)c(OC)cc2c1N	35 µM (active)
O=C(CN1CCCCCC1)NCC1CCCO1 (centres undefined)	117 µM (active)
COc1ccc(CN2CCN(C(C)C(=O)N(C)Cc3cccc(F)c3)CC2)cc1OC (centres undefined)	76.2 µM (active)
O=C(CSc1nnc(C2CC2)n1C1CC1)N1CCN(c2ccc(O)cc2)CC1	30.2 µM (active)
CCC(=O)c1ccccc1OCCN1CCN(CC)CC1	88.2 µM (active)
COc1ccc(NCc2ccsc2)cc1	29.6 µM (active)
COc1ccc(NC(=O)C(C)N2CCN(C)CC2)cc1 (centres undefined)	78.1 µM (active)
CCN(CC)S(=O)(=O)c1cccc(C(=O)N/N=C/c2ccc(OC)c(O)c2)c1	76.7 µM (active)
CC1CC(C)CN(C2CCN(Cc3cccnc3)CC2)C1 (centres undefined)	49.6 µM (active)

molecular target: Cytochrome P450 2C9 (Homo sapiens, UniProt P11712); conditions: not given
Sequence (P11712 whole entry): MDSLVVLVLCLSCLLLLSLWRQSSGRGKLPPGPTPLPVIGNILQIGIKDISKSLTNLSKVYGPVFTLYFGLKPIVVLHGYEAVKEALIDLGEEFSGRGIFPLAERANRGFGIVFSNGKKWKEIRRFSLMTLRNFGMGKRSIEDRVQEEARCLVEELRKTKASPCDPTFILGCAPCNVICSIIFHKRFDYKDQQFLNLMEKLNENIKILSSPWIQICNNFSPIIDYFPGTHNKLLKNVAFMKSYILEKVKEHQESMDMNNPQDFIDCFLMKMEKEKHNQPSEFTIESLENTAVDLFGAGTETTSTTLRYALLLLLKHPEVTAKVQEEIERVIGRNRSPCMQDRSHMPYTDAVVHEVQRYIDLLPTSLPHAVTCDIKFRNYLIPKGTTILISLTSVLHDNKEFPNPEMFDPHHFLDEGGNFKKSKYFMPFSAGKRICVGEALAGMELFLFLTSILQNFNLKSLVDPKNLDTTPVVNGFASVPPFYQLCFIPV

SMILES	AC50
O=C(NNC(=O)c1ccc2c(c1)C(=O)N(C1CCCCC1)C2=O)c1cccnc1	15.8 µM (inconclusive)
COc1ccc(Oc2ncc3nc(-c4ccc(Cl)cc4)c(=O)n(CCC#N)c3n2)cc1	7.94 µM (inconclusive)
c1csc(CNc2nc(-c3ccc4c(c3)OCO4)nc3ccccc23)c1	1.58 µM (inconclusive)
N#CCCn1c(=O)c(-c2ccccc2)nc2cnc(Oc3cccc(Cl)c3)nc21	7.94 µM (inconclusive)
NCCSCc1ccccc1Cl	3.98 µM (inconclusive)
Cc1ccc(/C=C/C(=O)NC(=S)Nc2ccccc2C(=O)NC2CCCCC2)cc1	7.08 µM (inconclusive)
O=C(O)CSc1cc(-c2ccccc2)nc2ccccc12	3.16 µM (inconclusive)
C=CCN(CC=C)C(=S)NC(=O)c1ccc(OC)c(Br)c1	15.8 µM (inconclusive)

molecular target: Cytochrome P450 3A4 (Homo sapiens, UniProt P08684); conditions: not given;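 also: CYP3A4 tested as one member of a cytochrome P450 panel screen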
Sequence (P08684 whole entry): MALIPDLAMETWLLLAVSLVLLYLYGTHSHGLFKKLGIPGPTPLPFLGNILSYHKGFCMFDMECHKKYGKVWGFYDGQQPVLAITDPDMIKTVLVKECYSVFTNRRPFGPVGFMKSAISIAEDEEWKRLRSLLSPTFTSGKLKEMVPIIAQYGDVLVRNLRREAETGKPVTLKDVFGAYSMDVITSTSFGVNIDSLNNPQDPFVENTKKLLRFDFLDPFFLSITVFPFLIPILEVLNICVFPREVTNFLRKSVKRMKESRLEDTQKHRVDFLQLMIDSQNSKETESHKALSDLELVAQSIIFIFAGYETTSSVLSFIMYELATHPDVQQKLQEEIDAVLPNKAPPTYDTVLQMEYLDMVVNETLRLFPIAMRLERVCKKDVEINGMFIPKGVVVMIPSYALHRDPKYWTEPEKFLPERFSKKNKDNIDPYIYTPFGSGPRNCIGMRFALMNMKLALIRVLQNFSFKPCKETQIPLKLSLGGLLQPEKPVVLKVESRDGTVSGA

SMILES	AC50
CCNc1ncc2nc(CCc3ccccc3)c(=O)n(CCOC)c2n1	15.8 µM (inconclusive)
Cc1ccccc1-c1nc(N(C)Cc2ccco2)c2ccccc2n1	25.1 µM (inconclusive)
CCOC(=O)c1c(CC(C)C)csc1NC=O	22.4 µM (inconclusive)
CCOC(=O)CSc1ncc(OC)c(Sc2ccc(Cl)cc2)n1	25.1 µM (inconclusive)

tested on: not listed separately; experiment: NIH3T3 cell viability loss – ATP luminescence, mouse fibroblasts, counter-screen, dose response (AID 2010); type: functional, cell-based; conditions: not given;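 also: cells exposed to compound for about 90 hours before reading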

SMILES	EC50
Cc1nn2c(SCC(=O)c3cccs3)cc(C(C)(C)C)nc2c1-c1ccccc1	> 60 µM (not active)
COc1ccc(OCCOCCN2CCc3ccccc3C2)cc1	> 60 µM (not active)
COc1ccc(C2=NN(C(=O)c3cccs3)C(c3ccccc3O)C2)cc1 (centres undefined)	> 60 µM (not active)
Cc1cc(C)c(OCCCCN(C)C)c(Br)c1	> 60 µM (inconclusive)
c1ccc(Cn2nnnc2C(c2cccnc2)N2CCN(c3ccccc3)CC2)cc1 (centres undefined)	> 60 µM (not active)
O=[N+]([O-])c1cc(-c2nnc(Nc3ccccc3)c3ccccc23)ccc1N1CCOCC1	> 30 µM (not active)
CCOC(=O)c1cn2nc(-c3ccc(OC)cc3)cc2nc1C1CCN(C(=O)OC(C)(C)C)CC1	> 60 µM (not active)
Cc1ccc(C)c(NS(=O)(=O)c2cc(C(=O)N3CCc4ccccc4C3)ccc2Cl)c1	> 60 µM (not active)
c1ccc(COc2ccc(OCCN3CCCC3)cc2)cc1	13.1 µM (active)
N#C/C(=C\c1c(Cl)cccc1Cl)c1nn(-c2ccccc2)c(-n2cccc2)c1C#N	> 60 µM (not active)
CC(C)CCNc1nc(N2CCCC2)c2c(c1C#N)CCN(C)C2	> 60 µM (not active)
Cc1ccccc1C1c2[nH]c3ccccc3c2CCN1Cc1cccn1-c1ncccn1 (centres undefined)	> 60 µM (not active)
O=S(=O)(N1CCCCC1)N1CCN(CC(O)COc2ccc3cc(Br)ccc3c2)CC1 (centres undefined)	> 60 µM (not active)
